This is an account of results in patent US7147849B2, “Pharmaceutical formulation” (Bitop AG, priority 1999, dated 2006).

The subject of this assay is human L540Cy tumors. Also noted: species or system SCID mice. Particulars: mouse, in vivo.

The structures appear in SMILES notation.

For `CC1=NC[C@H](O)[C@@H](C(=O)O)N1` [S,S-β-hydroxyectoine], the “tumor development compared with PBS without S,S-β-hydroxyectoine” value is reported as “faster tumor development”. Moreover, the “average survival rates calculated according to Kaplan-Meier” value (iv) was 30.0 (±2) days.
